Experimental data taken from article PMC4148164 (Journal of Medicinal Chemistry, 2014).

Columns and labels:
[1] = in biological milieu; estimated; cited from earlier work
[2] = test system: precontracted bovine coronary artery rings; assay: Vasorelaxation of U46619-precontracted bovine coronary artery rings; assay type: cell-based; settings: for fold more potent than 14,15-EET as vasorelaxant (ED50): ratio of ED50 versus 14,15-EET

Compound: CCCCCC1OC1C/C=C\C/C=C\C/C=C\CCCC(=O)O (stereo not shown) [14,15-EET, 14,15-epoxyeicosa-5(Z),8(Z),11(Z)-trienoic acid]
- half-life [1]: no more than seconds to minutes

Compound: N1-Butyl-N2-(12-(2-oxido-3H-1,2,3,5-oxathiadiazol-4-yl)dodec-5(Z)-en-1-yl)oxalamide [Compd 25]
- fold more potent than 14,15-EET as vasorelaxant (ED50) [2]: 6 fold

Compound: CCCCCNC(=O)NCCCC/C=C\CCCCCCc1nnn[nH]1 [Compd 19, 1-(12-(1H-Tetrazol-5-yl)dodec-5(Z)-en-1-yl)-3-pentylurea]
- fold more potent than 14,15-EET as vasorelaxant (ED50) [2]: 12 fold

Compound: CCCCCNC(=O)NCCCC/C=C\CCCCCNS(=O)(=O)c1ccccc1 [Compd 9]
- improvement in the EC50 by a factor (versus parent free acid) ([2]; vasorelaxation EC50 compared with parent free acid): ~2
